We go through 10 compounds from article PMC11279468, “Exploring a New Generation of Pyrimidine and Pyridine Derivatives as Anti-Influenza Agents Targeting the Polymerase PA–PB1 Subunits Interaction” (Pharmaceutics, 2024).

In general, IC50 refers to the midpoint of a concentration-inhibition curve. Broadly, the EC50 is the concentration that produces a half-maximal response. By melting point is commonly meant the temperature, or range, at which the solid turns liquid.

The target in data set [1] is T1, PA–PB1 interaction (6His-PA(239–716) / GST-PB1(1–25)) (Influenza A virus, UniProt P03433). Conditions: read-out: IC50 (ELISA PA–PB1), cited from earlier work. Background: In an ELISA, binding on a coated surface is turned into a signal by an enzyme label.
The test system of data set [2] is Influenza virus strain A/PR/8/34 (H1N1). Conditions: plaque reduction assay in MDCK cells; cited from earlier work.
Data set [3] has as its system MDCK cells. The note with it: cited from earlier work.
The subject of another data set is HEK 293T cells. The note with it: cited from earlier work.
The target in data set [4] is T1, PA–PB1 interaction (6His-PA(239–716) / GST-PB1(1–25)). The experiment in a line: biochemical. Format: binding.
In data set [5] the test system is Influenza virus strain A/PR/8/34 (H1N1).
The nature of a further data set: in vitro. Conditions: dog.
For data set [6], the system named is Influenza virus strain A/PR/8/34 (H1N1). The experiment in a line: microbe, parasite or virus in culture. Conditions: unidentified influenza virus, MDCK, read-out: EC50 (PRA).
Data set [7] concerns MDCK cells.
Protocol: (§1) The cytotoxicity of compounds was tested in MDCK cells using the 3-(4,5-dimethylthiazol-2-yl)-2,5-diphenyl tetrazolium bromide (MTT) method, as previously reported [32]. Briefly, MDCK cells (seeded at a density of 2 × 10^4 per well) were grown in 96-well plates for 24 h and then treated with serial dilutions of test compounds, or DMSO as a control, in DMEM supplemented with 10% FBS. After incubation at 37 °C for 48 h, 5 mg/mL of MTT (Sigma, Tokyo, Japan) in PBS was added into each well and incubated at 37 °C for a further 4 h. Successively, a solubilization solution was added to lyse the cells and incubated overnight at 37 °C. Finally, optical density was read at the wavelength of 570 nm on a microtiter plate reader (MultiSkan FC, ThermoFisher Scientific).
Data set [8] concerns MDCK cells. The data set can be described thus: Cytotoxicity assay (MTT) in MDCK cells. The note with it: read-out: CC50 (MDCK Cells); MTT assay, MDCK cells, 48 h; 50% decrease in cell viability. (Formazan colour is commonly taken as a measure of viable cells.)
Protocol: as §1
Data set [9] is described as follows: Cytotoxicity assay (MTT) in MDCK cells.
Protocol: as §1

Where two headings read alike, the source gives them in different places. Where only a bound is given, the exact number is not on record here.

Protocol for in vitro: as §1

`CCC(C)C(NC(=O)CSc1nc(-c2ccccc2)cc(-c2ccc(C)cc2)c1C#N)C(=O)OC` (centres unmarked) [Compound 1b]: the IC50 in data set [1] (ELISA-based PA–PB1 interaction assay) was 36 ± 3 µM. In addition, the 50% effective concentration (EC50) in data set [2] was 39 ± 2 µM. The CC50 was above 250 µM with MDCK cells [3] and 229 µM in the data set on HEK 293T cells.

On to `Cc1cccc(NC(=O)CSc2nc(-c3ccc(C(F)(F)F)cc3)cc(-c3ccc(C(F)(F)F)cc3)n2)c1` [Compound 1c], for which the half-inhibitory concentration (IC50) in data set [1] (ELISA PA–PB1 interaction) is above 200 µM. Also, the 50% effective concentration (EC50) in data set [2] was 26.5 ± 4.3 µM. The CC50 in the data set on MDCK cells [3] and in the data set with HEK 293T cells was above 250 µM throughout.

For the compound `Cc1cccc(NC(=O)CSc2nc(-c3ccccc3)cc(-c3ccccc3)n2)c1` [Compound 1d], the concentration for half-maximal inhibition (IC50) in data set [1] (ELISA PA–PB1 interaction) was 165 ± 18 µM. Besides, the EC50 in data set [2] is 3.5 ± 0.5 µM. Besides, the CC50 with MDCK cells [3] was 10.1 ± 1.7 µM; in the data set with HEK 293T cells, 22.3 µM.

`Cc1cccc(NC(=O)CSc2nc(-c3ccccc3)cc(-c3ccc(F)cc3)n2)c1` [Compound 2d, 2-{[4-(4-Fluorophenyl)-6-phenylpyrimidin-2-yl]thio}-N-(m-tolyl)acetamide]: the melting point lay within 186 to 190 °C. In data set [4], this compound gave an IC50 of 90.1 ± 30.2 µM. In [5], the “antiviral activity relative to RBV” value was “almost five-fold more active than RBV”. In “in vitro”, this compound yielded a CC50 at 48 h above 250 µM. For the same compound, the EC50 in data set [6] turned out to be 2.8 ± 0.6 µM.

The compound `Cc1cccc(NC(=O)CSc2nc(Sc3ccccc3)cc(-c3ccc(Cl)cc3)n2)c1` [Compound 2j, 2-{[4-(4-Chlorophenyl)-6-(phenylthio)pyrimidin-2-yl]thio}-N-(m-tolyl)acetamide] gave a melting point of 150 to 154 °C. Further, the half-maximal inhibitory concentration (IC50) in data set [4] was above 200 µM. The “cytotoxicity (in words)” value with MDCK cells [7] was “high cytotoxicity”. The same compound gave a CC50 at 48 h in the data set “in vitro” of 16 ± 4.2 µM. Moreover, the EC50 in data set [6] turned out to be 32.9 ± 4.1 µM.

In turn, `Cc1cccc(NC(=O)CSc2nc(Sc3ccccc3)cc(-c3ccc(F)cc3)n2)c1` [Compound 2k] yielded a melting point of 146 to 147 °C. The compound further showed an IC50 in [4] of 159 ± 29 µM. For the same compound, in the data set with MDCK cells [7], the “cytotoxicity (in words)” value is reported as “high cytotoxicity”. Moreover, in “in vitro”, the CC50 at 48 h was determined as 48.2 ± 2.5 µM. Moreover, the EC50 in [6] was determined as 16.4 ± 1.9 µM.

In turn, `Cc1cccc(NC(=O)CSc2nc(C(=O)Nc3ccccc3)cc(-c3ccccc3)n2)c1` [Compound 2l, 2-{[2-oxo-2-(m-tolylamino)ethyl]thio}-N,6-diphenylpyrimidine-4-carboxamide] displayed a melting point of 181 to 182 °C. In data set [4], this compound returned an IC50 of 125 ± 37 µM. Moreover, the “cytotoxicity (in words)” value with MDCK cells [7] is “high cytotoxicity”. Besides, the CC50 at 48 h in the data set “in vitro” was 46.3 ± 10.4 µM. In addition, the concentration for a half-maximal effect (EC50) in data set [6] is 13 ± 5.5 µM.

For `CCC(CC)O[C@@H]1C=C(C(=O)O)C[C@H](N)[C@H]1NC(C)=O` [OSC, oseltamivir carboxylate], the concentration for a half-maximal effect (EC50) in data set [5] (read-out: EC50 (PRA)) was determined as 0.04 ± 0.01 µM. Besides, the CC50 in the data set with MDCK cells [8] was above 250 µM.

In data set [5] (Influenza virus strain A/PR/8/34, 24 h), `CSCC[C@H](N)C(=O)N[C@@H](CC(=O)O)C(=O)N[C@H](C(=O)N[C@@H](CC(N)=O)C(=O)N1CCC[C@H]1C(=O)N[C@H](C(=O)N[C@@H](CC(C)C)C(=O)N[C@@H](CC(C)C)C(=O)N[C@@H](Cc1ccccc1)C(=O)N[C@@H](CC(C)C)C(=O)N[C@@H](CCCCN)C(=O)N[C@H](C(=O)N1CCC[C@H]1C(=O)N[C@@H](C)C(=O)N[C@@H](CCC(N)=O)C(=O)N[C@@H](Cc1ccc(O)cc1)C(=O)NCC(=O)N[C@@H](CCCNC(=N)N)C(=O)N[C@@H](CCCCN)C(=O)N[C@@H](CCCCN)C(=O)N[C@@H](CCCNC(=N)N)C(=O)N[C@@H](CCCNC(=N)N)C(=O)N[C@@H](CCC(N)=O)C(=O)N[C@@H](CCCNC(=N)N)C(=O)N[C@@H](CCCNC(=N)N)C(=O)N[C@@H](CCCNC(=N)N)C(=O)N1CCC[C@H]1C(=O)N1CCC[C@H]1C(=O)O)C(C)C)[C@@H](C)O)C(C)C` [PB1(1–15)-Tat peptide] registered a concentration giving a half-maximal response (EC50) of 49.7 ± 5.1 µM. Moreover, in data set [9], the CC50 was above 250 µM.

With `NC(=O)c1ncn(C2O[C@H](CO)[C@@H](O)[C@H]2O)n1` (stereo partly drawn) [RBV, 1-D-ribofuranosyl-1,2,4-triazole-3-carboxamide, reference compound], in [6], the concentration for a half-maximal effect (EC50) worked out at 12.8 ± 3.2 µM. In data set [9] (dog, MDCK cells), this compound had a CC50 at 48 h above 250 µM.
